# In patent publication US20190336489A1, “NON PEPTIDE HETEROBIVALENT MOLECULES FOR TREATING INFLAMMATORY DISEASES” (GLAXOSMITHKLINE INTELLECTUAL PROPERTY DEVELOPMENT LIMITED, priority 2017, published 2019):
# Marks after values point to notes of the source that are not given here.
# Legend:
# Format in all cases: cell-based
# [1] = molecular target: T1, CCR3 (Homo sapiens, UniProt P51677); assay: Antibody Dependent Cellular Cytotoxicity (ADCC) reporter assay, CCR3 target cells; details: for EC50 / ADCC efficacy: CHOK1 cells overexpressing CCR3; for EC50: Jurkat FcgRIIIa NFAT-luciferase reporter cells, EC50 class, read-out: ADCC potency; for ADCC efficacy: maximum signal:background (S/B)
# T1 construct: expressed in transfected cells; host or cells: CHOK1
# T1 sequence (P51677 1-355): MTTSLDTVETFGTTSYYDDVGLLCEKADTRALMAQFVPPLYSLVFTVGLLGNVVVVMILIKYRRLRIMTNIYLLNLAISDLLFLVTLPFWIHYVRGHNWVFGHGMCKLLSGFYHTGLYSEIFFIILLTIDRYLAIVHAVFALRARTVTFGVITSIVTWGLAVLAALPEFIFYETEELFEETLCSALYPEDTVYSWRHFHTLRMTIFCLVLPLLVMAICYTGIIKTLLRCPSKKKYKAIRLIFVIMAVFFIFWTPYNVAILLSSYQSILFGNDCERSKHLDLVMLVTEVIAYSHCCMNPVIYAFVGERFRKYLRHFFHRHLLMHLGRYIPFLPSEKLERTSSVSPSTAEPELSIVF
# Description: (§1) The compounds described herein have been characterized in an ADCC reporter assay (see Section 1.2 ADCC reporter for protocol). […] Furthermore, the assay also confirms that this formed complex can engage and activate the Fc receptors on immune cells. Lastly, the assay provides both potency (EC50) and efficacy (signal to background ratio) for each compound in a dose dependant manner.
# (§2) This assay has four components • 1) Heterobivalent Compound consisting of a targeting ligand and a hapten connected by a linker (ranging from 10 uM-1 pM) • 2) A hapten antibody with functional Fc domain (typical concentrations are 0.01 ug/mL-200 ug/mL) • 3) Target cells—CHOK1 cells engineered to overexpress either CCR1, CCR2, or CCR3, or CEMNKR cells engineered to overexpress CCR5 (typically 1000-20,000 cells per well) • 4) Reporter cells—Jurkat cells engineered to express FcgRIIIa (ADCC reporter assay) and with a reporter gene (luciferase) under the control of the NFAT promoter (typically 3000-75,000 cells per well)
# (§3) Reagents are combined in final volume of 20 uL in 384-well tissue culture treated plated.
# (§4) All components are incubated together for ˜12-18 hours. Add BioGlo Detection reagent (from Promega) to lyse the cells and provide substrate for the luciferase reporter protein. Signal is measured on a microplate reader capable of measuring luminescence. Signal:Background is calculated by dividing the signal of a test well by the signal obtained when no compound is included in the assay. EC50 calculations were done using Graphpad Prism Software, specifically a nonlinear regression curve fit (Y=Bottom+(Top−Bottom)/(1+10^((Log EC50−X)*HillSlope)))
# [2] = molecular target: T2, CCR2 (Homo sapiens, UniProt P41597); assay: Antibody Dependent Cellular Cytotoxicity (ADCC) reporter assay, CCR2 target cells; details: CHOK1 cells overexpressing CCR2
# T2 construct: expressed in transfected cells; host or cells: CHOK1
# T2 sequence (P41597 whole entry, species assumed): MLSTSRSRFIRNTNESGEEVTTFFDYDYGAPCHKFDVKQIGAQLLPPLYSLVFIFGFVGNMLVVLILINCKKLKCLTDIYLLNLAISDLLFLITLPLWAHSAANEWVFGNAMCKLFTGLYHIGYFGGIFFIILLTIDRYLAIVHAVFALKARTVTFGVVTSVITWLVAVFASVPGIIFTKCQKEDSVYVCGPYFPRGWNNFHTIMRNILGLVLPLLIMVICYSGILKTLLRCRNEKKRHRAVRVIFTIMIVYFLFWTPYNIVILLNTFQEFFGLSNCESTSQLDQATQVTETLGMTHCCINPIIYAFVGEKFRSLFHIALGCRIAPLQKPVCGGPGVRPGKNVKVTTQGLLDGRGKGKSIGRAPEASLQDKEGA
# Description: as §1, §2, §3, §4
# [3] = molecular target: T3, CCR1 (Homo sapiens, UniProt P32246); assay: Antibody Dependent Cellular Cytotoxicity (ADCC) reporter assay, CCR1 target cells; details: CHOK1 cells overexpressing CCR1; for EC50: Jurkat FcgRIIIa NFAT-luciferase reporter cells, EC50 class, read-out: ADCC potency; for ADCC efficacy: maximum signal:background (S/B)
# T3 construct: expressed in transfected cells; host or cells: CHOK1
# T3 sequence (P32246 1-355): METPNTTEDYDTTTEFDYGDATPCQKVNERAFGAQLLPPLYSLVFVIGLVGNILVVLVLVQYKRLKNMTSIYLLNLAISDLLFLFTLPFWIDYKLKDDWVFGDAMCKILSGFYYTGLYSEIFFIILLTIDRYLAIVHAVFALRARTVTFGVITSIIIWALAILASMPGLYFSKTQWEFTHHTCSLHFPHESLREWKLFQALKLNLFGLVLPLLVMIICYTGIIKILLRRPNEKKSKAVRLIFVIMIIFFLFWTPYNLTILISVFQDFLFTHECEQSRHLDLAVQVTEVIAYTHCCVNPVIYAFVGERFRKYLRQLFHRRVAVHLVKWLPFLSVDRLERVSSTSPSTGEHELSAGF
# Description: as §1, §2, §3, §4
# [4] = molecular target: T4, CCR5 (Homo sapiens, UniProt P51681); assay: Antibody Dependent Cellular Cytotoxicity (ADCC) reporter assay, CCR5 target cells; details: CEMNKR cells overexpressing CCR5
# T4 construct: expressed in transfected cells; host or cells: CEMNKR
# T4 sequence (P51681 whole entry): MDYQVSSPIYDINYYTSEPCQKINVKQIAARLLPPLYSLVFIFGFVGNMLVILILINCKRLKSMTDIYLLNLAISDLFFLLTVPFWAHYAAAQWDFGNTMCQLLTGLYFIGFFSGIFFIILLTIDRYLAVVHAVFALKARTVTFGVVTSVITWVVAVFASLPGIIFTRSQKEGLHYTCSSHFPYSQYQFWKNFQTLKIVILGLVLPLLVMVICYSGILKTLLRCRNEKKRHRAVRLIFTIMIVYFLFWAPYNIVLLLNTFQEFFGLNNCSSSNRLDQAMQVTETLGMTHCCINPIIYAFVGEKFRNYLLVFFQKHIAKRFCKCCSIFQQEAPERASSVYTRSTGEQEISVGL
# Description: as §1, §2, §3
# All components are incubated together for ˜12-18 hours. […] Signal is measured on a microplate reader capable of measuring luminescence. Signal:Background is calculated by dividing the signal of a test well by the signal obtained when no compound is included in the assay. […]
# [5] = Jurkat FcgRIIIa NFAT-luciferase reporter cells, EC50 class, read-out: ADCC potency
# [6] = maximum signal:background (S/B)
SMILES,EC50 [3] [nM],ADCC efficacy [3],EC50 [1] [nM],ADCC efficacy [1],other results
"CC(C)(C)N1CCNC(C(=O)N2CCN(C(=O)Nc3nc(C(F)(F)F)c(Cl)s3)C(CCOC(=O)NCCOCCOCCOCCOCCOCCOCCOCCOCCOCCNc3ccc([N+](=O)[O-])cc3[N+](=O)[O-])C2)C1 (mixture of isomers) [Compound 18, 2-(4-(4-(Tert-butyl)piperazine-2-carbonyl)-1-((5-chloro-4-(trifluoromethyl)thiazol-2-yl)carbamoyl)piperazin-2-yl)ethyl (29-((2,4-dinitrophenyl)amino)-3,6,9,12,15,18,21,24,27-nonaoxanonacosyl)carbamate]",–,–,–,–,"efficacy signal ([1]; ADCC reporter assay): robust; potency ([1]; ADCC reporter assay): nanomolar range; EC50 [2, 5]: < 1 nM; ADCC efficacy [2, 6]: +++^e (Maximum Signal:Background > 10 = +++)"
"CC(C)[C@@H](NC(=O)c1cccc(C(=O)NCCOCCOCCOCCOCCOCCOCCOCCOCCOCCOCCOCCNC(=O)CCCC[C@@H]2SC[C@@H]3NC(=O)N[C@@H]32)c1)C(=O)N1CCC(c2ccc(Cl)cc2)CC1 [Compound 1, N1-((R)-1-(4-(4-chlorophenyl)piperidin-1-yl)-3-methyl-1-oxobutan-2-yl)-N3-(37-oxo-41-((3aS,4S,6aR)-2-oxohexahydro-1H-thieno[3,4-d]imidazol-4-yl)-3,6,9,12,15,18,21,24,27,30,33-undecaoxa-36-azahentetracontyl)isophthalamide]",10 to 100,+++^d (maximum signal:background > 11 = +++),–,–,–
"CC(C)[C@@H](NC(=O)c1cccc(C(=O)NCCOCCOCCOCCOCCNC(=O)CCCC[C@@H]2SC[C@@H]3NC(=O)N[C@@H]32)c1)C(=O)N1CCC(c2ccc(Cl)cc2)CC1 [Compound 2, N1-((R)-1-(4-(4-chlorophenyl)piperidin-1-yl)-3-methyl-1-oxobutan-2-yl)-N3-(16-oxo-20-((3aS,4S,6aR)-2-oxohexahydro-1H-thieno[3,4-d]imidazol-4-yl)-3,6,9,12-tetraoxa-15-azaicosyl)isophthalamide]",100 to 1000,++^d (between 9-11 = ++),–,–,–
"CC(C)[C@@H](NC(=O)c1cccc(C(=O)NCCOCCOCCOCCOCCOCCOCCOCCNC(=O)CCCC[C@@H]2SC[C@@H]3NC(=O)N[C@@H]32)c1)C(=O)N1CCC(c2ccc(Cl)cc2)CC1 [Compound 3, N1-((R)-1-(4-(4-chlorophenyl)piperidin-1-yl)-3-methyl-1-oxobutan-2-yl)-N3-(25-oxo-29-((3aS,4S,6aR)-2-oxohexahydro-1H-thieno[3,4-d]imidazol-4-yl)-3,6,9,12,15,18,21-heptaoxa-24-azanonacosyl)isophthalamide]",10 to 100,++^d (between 9-11 = ++),–,–,–
"CC(C)[C@@H](NC(=O)c1cccc(C(=O)NCCOCCOCCOCCOCCC(=O)NCCOCCOCCOCCOCCOCCOCCOCCOCCOCCOCCOCCNC(=O)CCCC[C@@H]2SC[C@@H]3NC(=O)N[C@@H]32)c1)C(=O)N1CCC(c2ccc(Cl)cc2)CC1 [Compound 4, N1-((R)-1-(4-(4-chlorophenyl)piperidin-1-yl)-3-methyl-1-oxobutan-2-yl)-N3-(15,53-dioxo-57-((3aS,4S,6aR)-2-oxohexahydro-1H-thieno[3,4-d]imidazol-4-yl)-3,6,9,12,19,22,25,28,31,34, 37,40,43,46,49-pentadecaoxa-16,52-diazaheptapentacontyl)isophthalamide]",100 to 1000,++^d (between 9-11 = ++),–,–,–
"CC(C)[C@@H](NC(=O)c1cccc(C(=O)NCCOCCOCCOCCOCCOCCOCCOCCOCCC(=O)NCCOCCOCCOCCOCCOCCOCCOCCOCCOCCOCCOCCNC(=O)CCCC[C@@H]2SC[C@@H]3NC(=O)N[C@@H]32)c1)C(=O)N1CCC(c2ccc(Cl)cc2)CC1 [Compound 5, N1-((R)-1-(4-(4-chlorophenyl)piperidin-1-yl)-3-methyl-1-oxobutan-2-yl)-N3-(27,65-dioxo-69-((3aS,4S,6aR)-2-oxohexahydro-1H-thieno[3,4-d]imidazol-4-yl)-3,6,9,12,15,18,21,24,31,34, 37,40,43,46,49,52,55,58,61-nonadecaoxa-28,64-diazanonahexacontyl)isophthalamide]",100 to 1000,+^d (between 6-8 = +),–,–,–
"O=C(NCc1ccc(C(=O)NCCOCCOCCOCCOCCOCCOCCOCCOCCOCCNc2ccc([N+](=O)[O-])cc2[N+](=O)[O-])cc1)NC[C@H]1CN(Cc2ccc(Cl)c(Cl)c2)CCO1 [Compound 20, (S)-4-((3-((4-(3,4-dichlorobenzyl)morpholin-2-yl)methyl)ureido)methyl)-N-(29-((2,4-dinitrophenyl)amino)-3,6,9,12,15,18,21,24,27-nonaoxanonacosyl)benzamide]",–,–,< 1,+++^f (Maximum S:B > 20 = +++),"EC50 [4, 5]: < 1 nM; ADCC efficacy [4, 6]: +++^g (Maximum Signal:Background > 70 = +++)"
"O=C(NCc1ccc(C(=O)NCCCOCCOCCOCCCNc2ccc([N+](=O)[O-])cc2[N+](=O)[O-])cc1)NC[C@@H]1CN(Cc2ccc(Cl)c(Cl)c2)CCO1 [Compound 21, (R)-4-((3-((4-(3,4-dichlorobenzyl)morpholin-2-yl)methyl)ureido)methyl)-N-(3-(2-(2-(3-((2,4-dinitrophenyl)amino)propoxy)ethoxy)ethoxy)propyl)benzamide]",–,–,< 1,+++^f (Maximum S:B > 20 = +++),–
"O=C(NCc1ccc(C(=O)NCCCOCCOCCOCCCNC(=S)Nc2ccc(-c3c4ccc(=O)cc-4oc4cc(O)ccc34)c(C(=O)O)c2)cc1)NC[C@H]1CN(Cc2ccc(Cl)c(Cl)c2)CCO1 [Compound 22, (S)-5-(3-(1-(4-((3-((4-(3,4-Dichlorobenzyl)morpholin-2-yl)methyl)ureido)methyl)phenyl)-1-oxo-6,9,12-trioxa-2-azapentadecan-15-yl)thioureido)-2-(6-hydroxy-3-oxo-3H-xanthen-9-yl)benzoic acid]",–,–,1 to 10,+++^f (Maximum S:B > 20 = +++),–
"O=C(CCC(=O)N[C@H]1CC[C@H](NC(=O)c2ccc(CNC(=O)NC[C@H]3CN(Cc4ccc(Cl)c(Cl)c4)CCO3)cc2)CC1)NCCCOCCOCCOCCCNc1ccc([N+](=O)[O-])cc1[N+](=O)[O-] [Compound 23, N1-((Trans)-4-(4-((3-(((S)-4-(3,4-Dichlorobenzyl)morpholin-2-yl)methyl)ureido)methyl)benzamido)cyclohexyl)-N4-(3-(2-(2-(3-((2,4-dinitrophenyl)amino)propoxy)ethoxy)ethoxy)propyl)succinamide]",–,–,< 1,+++^f (Maximum S:B > 20 = +++),–
"CCCCN1C(=O)[C@@H]([C@H](O)C2CCCCC2)NC(=O)C12CCN(Cc1ccc(Oc3ccc(C(=O)NCCOCCOCCOCCOCCOCCOCCOCCOCCOCCNC(=S)Nc4ccc5c(c4)C(=O)OC54c5ccc(O)cc5Oc5cc(O)ccc54)cc3)cc1)CC2 [Compound 25, 4-(4-(((R)-1-butyl-3-((R)-cyclohexyl(hydroxy)methyl)-2,5-dioxo-1,4,9-triazaspiro[5.5]undecan-9-yl)methyl)phenoxy)-N-(1-((3′,6′-dihydroxy-3-oxo-3H-spiro[isobenzofuran-1,9′-xanthen]-5-yl)amino)-1-thioxo-5,8,11,14,17,20,23,26,29-nonaoxa-2-azahentriacontan-31-yl)benzamide]",–,–,1 to 10,+++^f (Maximum S:B > 20 = +++),–
